Legend:
Test in all cases: relative viability (nuclei count vs DMSO), 5 days (fraction); higher = more cells survive
[1] = compound: CCN1CCN(c2ccc(Nc3cc(N(C)C(=O)Nc4c(Cl)c(OC)cc(OC)c4Cl)ncn3)cc2)CC1 [BGJ398] + CC(=O)Nc1cccc(-n2c(=O)n(C3CC3)c(=O)c3c(Nc4ccc(I)cc4F)n(C)c(=O)c(C)c32)c1 [Trametinib] (partner 0.02 µM)
Method in brief: (§1)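 Dosing by pin tool came one day after lung cancer cell lines were seeded in 1536-well plates, using either one drug or a fixed anchor-drug dose plus five library-drug doses (not always all listed) in √10 steps. After 5 days, nuclei were counted on 4× images. Relative viability is treated-well nuclei count divided by vehicle-well nuclei count, and values are medians of duplicate plates.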

[2] = compound: CCN1CCN(c2ccc(Nc3cc(N(C)C(=O)Nc4c(Cl)c(OC)cc(OC)c4Cl)ncn3)cc2)CC1 [BGJ398] + COc1cc2c(Oc3ccc(NC(=O)C4(C(=O)Nc5ccc(F)cc5)CC4)cc3F)ccnc2cc1OCCCN1CCOCC1 [Foretinib] (partner 0.25 µM)
Method in brief: as §1

[3] = compound: CCN1CCN(c2ccc(Nc3cc(N(C)C(=O)Nc4c(Cl)c(OC)cc(OC)c4Cl)ncn3)cc2)CC1 [BGJ398] + CS(=O)(=O)N1CCN(Cc2cc3nc(-c4cccc5[nH]ncc45)nc(N4CCOCC4)c3s2)CC1 [Pictilisib] (partner 1 µM)
Method in brief: as §1

[4] = compound: C1=CC2=NC=CN=C2C=C1/C=C/3\C(=O)NC(=O)S3 + Cc1nc(Nc2ncc(C(=O)Nc3c(C)cccc3Cl)s2)cc(N2CCN(CCO)CC2)n1 [Dasatinib] (partner 0.075 µM)
Method in brief: as §1

Cell Line	relative viability ([1]; first compound 0.01 µM)	relative viability ([1]; first compound 0.03162 µM)	relative viability ([1]; first compound 0.1 µM)	relative viability ([1]; first compound 0.3162 µM)	relative viability ([1]; first compound 1 µM)	relative viability ([2]; first compound 0.01 µM)	relative viability ([2]; first compound 0.03162 µM)	relative viability ([2]; first compound 0.1 µM)	relative viability ([2]; first compound 0.3162 µM)	relative viability ([2]; first compound 1 µM)	relative viability ([3]; first compound 0.01 µM)	relative viability ([3]; first compound 0.03162 µM)	relative viability ([3]; first compound 0.1 µM)	relative viability ([3]; first compound 0.3162 µM)	relative viability ([3]; first compound 1 µM)	relative viability ([4]; first compound 0.02 µM)	relative viability ([4]; first compound 0.06325 µM)	relative viability ([4]; first compound 0.2 µM)	relative viability ([4]; first compound 0.6325 µM)	relative viability ([4]; first compound 2 µM)
LC-2-ad	0.912	0.935	0.892	0.873	0.985	1.05	0.839	1.02	0.963	0.99	0.547	0.492	0.467	0.419	0.392	0.843	0.528	0.746	0.622	0.256
SK-LU-1	0.446	0.669	0.454	0.52	0.229	0.716	0.833	0.778	0.791	0.869	0.547	0.61	0.497	0.531	0.424	0.196	0.196	0.2	0.19	0.0971
ChaGo-K-1	0.876	0.914	0.871	0.922	0.929	0.899	0.991	0.914	1.01	0.907	0.802	0.702	0.561	0.608	0.314	0.611	0.574	0.596	0.544	0.499
COR-L 105	0.423	0.431	0.444	0.399	0.431	1.05	1.13	1.09	1.07	0.892	0.314	0.442	0.417	0.328	0.387	0.343	0.344	0.376	0.402	0.279
NCI-H1975	0.324	0.515	0.391	0.31	0.25	0.989	1.12	1.06	0.879	0.97	0.296	0.296	0.269	0.321	0.252	0.293	0.38	0.369	0.334	0.318
NCI-H1993	0.447	0.524	0.596	0.441	0.595	0.833	0.67	0.883	0.842	0.735	0.744	0.766	0.722	0.82	0.685	0.516	0.592	0.667	0.581	0.521
RERF-LC-KJ	0.854	0.864	0.962	0.87	0.953	0.912	0.899	0.961	0.911	0.851	0.598	0.663	0.515	0.583	0.615	0.621	0.911	0.933	0.654	0.66
NCI-H23	0.348	0.438	0.441	0.377	0.322	1.01	1.08	1.17	1.06	0.881	0.545	0.487	0.477	0.461	0.411	0.703	0.976	0.715	0.754	0.29
HCC-366	0.309	0.375	0.387	0.311	0.325	0.924	0.883	0.944	0.89	1.08	0.0862	0.146	0.137	0.277	0.0758	0.613	–	0.645	0.552	0.0998
EMC-BAC-2	0.919	0.912	0.929	0.78	0.854	1.12	1.02	0.98	1.05	0.992	0.503	0.561	0.513	0.476	0.465	0.309	0.297	0.33	0.322	0.224
NCI-H2405	0.495	0.654	0.622	0.463	0.59	1.03	1.1	1.1	1.09	0.972	0.406	0.587	0.42	0.482	0.421	0.233	0.161	0.231	0.184	0.155
NCI-H358	0.137	0.127	0.134	0.126	0.148	0.61	0.725	0.682	0.718	0.951	0.305	0.403	0.358	0.315	0.332	0.151	0.202	0.167	0.14	0.105
NCI-H1944	0.371	0.452	0.403	0.387	0.382	0.946	0.889	0.941	0.831	0.826	0.36	0.348	0.323	0.333	0.311	0.227	0.191	0.209	0.193	0.147
EPLC-272H	0.302	0.345	0.282	0.194	0.198	0.794	0.534	0.84	0.724	0.74	0.323	0.296	0.255	0.255	0.18	0.43	0.462	0.421	0.294	0.153
NCI-H1915	0.282	0.31	0.29	0.221	0.17	1.05	1.06	1.14	1.1	1.09	0.913	0.904	0.906	1.03	0.97	0.297	0.313	0.332	0.297	0.282
NCI-H596	0.719	0.631	0.773	0.709	0.62	0.903	0.804	0.773	0.944	0.779	0.367	0.416	0.355	0.389	0.321	0.67	0.588	0.62	0.528	0.427
NCI-H322M	0.587	0.465	0.511	0.435	0.507	1.03	0.896	1.07	0.966	0.958	0.511	0.415	0.508	0.432	0.515	0.274	0.27	0.269	0.239	0.238
NCI-H2228	0.42	0.694	0.503	0.348	0.419	0.776	0.893	0.848	0.822	0.826	0.342	0.56	0.531	0.484	0.365	0.414	0.448	0.47	0.389	0.388
NCI-H647	0.374	0.573	0.526	0.447	0.345	1.09	1.12	1.12	1.39	1.27	0.406	0.511	0.38	0.401	0.29	0.173	0.259	0.256	0.149	0.103
SK-MES-1	0.525	0.591	0.534	0.574	0.63	0.869	1.08	0.971	0.809	1.12	0.401	0.415	0.431	0.383	0.335	0.456	0.267	0.375	0.339	0.211
NCI-H2170	0.941	0.937	1.02	0.91	0.866	1.02	1.04	1.06	0.977	1.04	0.348	0.279	0.311	0.287	0.288	0.495	0.611	0.508	0.48	0.597
NCI-H2085	0.498	0.525	0.505	0.705	0.502	1	1.12	0.909	0.903	0.781	0.456	0.44	0.372	0.508	0.394	0.226	0.212	0.248	0.257	0.213
SW 1573	0.477	0.587	0.455	0.448	0.47	0.91	1.13	0.866	0.594	0.973	0.485	0.486	0.495	0.438	0.611	0.392	0.76	0.69	0.523	0.291
NCI-H727	0.417	0.412	0.381	0.389	0.385	1.12	0.773	0.822	0.848	0.927	0.455	0.504	0.176	0.316	0.293	0.488	0.362	0.355	0.378	0.24
NCI-H441	–	0.484	0.52	0.429	0.436	0.997	0.902	0.893	0.998	1.11	0.416	0.496	0.558	0.54	0.487	0.797	0.526	0.7	0.573	0.281
LOU-NH91	0.718	0.689	0.779	0.705	0.759	0.943	–	0.975	0.563	0.951	0.515	0.524	0.52	0.484	0.453	0.568	0.597	0.551	0.525	0.354

— the supplement of paper PMC10307832
